In brackets after ≈: the same amount, converted by molar mass. Read-outs that look alike come from different tables or passages of the source.
What was measured:
[1] = tested on: Mycobacterium kansasii 235/80; assay: Antimycobacterial MIC micromethod; type: cell-based; settings: read-out: MIC M. kansasii 235/80
[2] = tested on: Mycobacterium tuberculosis 331/88 (H37Rv); assay: Antimycobacterial MIC micromethod, Šula's medium; type: cell-based
[3] = tested on: M. kansasii 6509/96 (clinically isolated strain); assay: Antimycobacterial MIC micromethod; type: cell-based; settings: Mycobacterium kansasii, read-out: MIC M. kansasii 6509/96
[4] = tested on: Mycobacterium avium 330/88; assay: Antimycobacterial MIC micromethod; type: cell-based
[5] = target: T1, mycobacterial isocitrate lyase (ICL1, Rv0467) (Mycobacterium tuberculosis, UniProt P9WKK7); assay: Isocitrate lyase inhibition assay (ICL1); type: biochemical, Mycobacterium tuberculosis H37Rv; settings: 10 μmol/L; read-out: % ICL inhibition at 10 μmol/L (± standard deviation)
T1 construct: His tag (from pET-28b(+)); made in house; host or cells: E. coli BL21(DE3), pET-28b(+) plasmid
T1 sequence (P9WKK7 1-428): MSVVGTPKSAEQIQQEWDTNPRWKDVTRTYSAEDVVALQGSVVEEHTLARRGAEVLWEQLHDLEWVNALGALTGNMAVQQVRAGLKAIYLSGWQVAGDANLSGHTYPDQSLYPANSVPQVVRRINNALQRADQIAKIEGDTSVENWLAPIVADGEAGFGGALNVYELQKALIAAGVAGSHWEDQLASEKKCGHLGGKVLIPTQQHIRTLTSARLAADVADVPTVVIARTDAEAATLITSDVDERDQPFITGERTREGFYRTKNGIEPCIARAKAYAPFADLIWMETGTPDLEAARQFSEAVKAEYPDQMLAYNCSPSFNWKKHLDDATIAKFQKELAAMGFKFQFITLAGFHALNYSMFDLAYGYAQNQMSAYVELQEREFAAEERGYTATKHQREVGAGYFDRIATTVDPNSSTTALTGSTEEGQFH

[6] = tested on: Enterococcus sp. J 14365/08; assay: Antibacterial microdilution broth method; type: cell-based; settings: read-out: MIC/IC90 Enterococcus sp. J 14365/08
Procedure: (§1) The in vitro antibacterial activity was assayed against eight Gram-positive and Gram-negative strains: Staphylococcus aureus CCM 4516/08, methicillin-resistant Staphylococcus aureus H 5996/08 (MRSA), Staphylococcus epidermidis H 6966/08, Enterococcus sp. J 14365/08; Escherichia coli CCM 4517, Klebsiella pneumoniae D 11750/08, ESBL-positive Klebsiella pneumoniae J 14368/08, and Pseudomonas aeruginosa CCM 1961.
(§2) The microdilution broth method modified according to standard M07-A07 in Mueller-Hinton broth (HiMedia Laboratories, Mumbai, India) adjusted to pH 7.4 (±0.2) was used. The tested compounds were dissolved in DMSO to the final concentrations ranging from […]. Benzylpenicillin (penicillin G) was used as a comparative drug. Bacterial inoculum in sterile water was prepared to match 0.5 McFarland scale ([…]). The minimum inhibitory concentrations were assayed as 90% (IC90) or higher reduction of growth when compared to the control. The determination of results was performed visually and spectrophotometrically (at 540 nm). The values of MICs were determined after 24 and 48 h of incubation in the darkness at 35 °C (±0.1) in a humid atmosphere.

[7] = tested on: Staphylococcus epidermidis H 6966/08; assay: Antibacterial microdilution broth method; type: cell-based; settings: read-out: MIC/IC90 S. epidermidis H 6966/08
Procedure: as §1, §2

[8] = tested on: Escherichia coli CCM 4517; assay: Antibacterial microdilution broth method; type: cell-based; settings: read-out: MIC/IC90 E. coli CCM 4517
Procedure: as §1, §2

[9] = tested on: Staphylococcus aureus CCM 4516/08; assay: Antibacterial microdilution broth method; type: cell-based; settings: read-out: MIC/IC90 S. aureus CCM 4516/08
Procedure: as §1, §2

[10] = tested on: methicillin-resistant Staphylococcus aureus H 5996/08 (MRSA); assay: Antibacterial microdilution broth method; type: cell-based; settings: read-out: MIC/IC90 MRSA H 5996/08
Procedure: as §1, §2

[11] = 336 h, 14 d, read-out: MIC Mtb. 331/88
[12] = 504 h, 21 d, read-out: MIC Mtb. 331/88

Row | Compound | MIC ([1]; 235/80, 168 h, 7 d) [µM] | MIC ([1]; 235/80, 336 h, 14 d) [µM] | MIC ([1]; 235/80, 504 h, 21 d) [µM] | MIC [2, 11] [µM] | MIC [2, 12] [µM] | MIC ([3]; 168 h, 7 d) [µM] | MIC ([3]; 336 h, 14 d) [µM] | MIC ([3]; 504 h, 21 d) [µM] | MIC ([4]; 330/88, 336 h, 14 d) [µM] | MIC ([4]; 330/88, 504 h, 21 d) [µM] | inhibition at 10 µM [5] [%] | MIC ([1]; 235/80, 168 h) [µM] | MIC ([1]; 235/80, 336 h) [µM] | MIC ([1]; 235/80, 504 h) [µM] | MIC ([3]; 168 h) [µM] | MIC ([3]; 336 h) [µM] | MIC ([3]; 504 h) [µM] | further results
1 | O=C(Oc1cc(Cl)ccc1C(=O)Nc1ccc(F)cc1)c1ccc(C(F)(F)F)cc1 [1n] | 2 (≈ 0.876 µg/mL) | 8 (≈ 3.5 µg/mL) | 8 (≈ 3.5 µg/mL) | 4 (≈ 1.75 µg/mL) | 8 (≈ 3.5 µg/mL) | 4 (≈ 1.75 µg/mL) | 8 (≈ 3.5 µg/mL) | 8 (≈ 3.5 µg/mL) | 4 (≈ 1.75 µg/mL) | 4 (≈ 1.75 µg/mL) | 17 ± 1.3 |  |  |  |  |  |  | 
2 | O=C(Oc1ccc(Cl)cc1C(=O)Nc1cccc(C(F)(F)F)c1)c1ccc(C(F)(F)F)cc1 [1q] | 2 (≈ 0.976 µg/mL) | 4 (≈ 1.95 µg/mL) | 8 (≈ 3.9 µg/mL) | 2 (≈ 0.976 µg/mL) | 2 (≈ 0.976 µg/mL) | 1 (≈ 0.488 µg/mL) | 4 (≈ 1.95 µg/mL) | 8 (≈ 3.9 µg/mL) | 4 (≈ 1.95 µg/mL) | 16 (≈ 7.8 µg/mL) | 19 ± 0.5 |  |  |  |  |  |  | 
3 | O=C(O)CC[N+](=O)[O-] [3-NP, 3-nitropropionic acid, reference compound] |  |  |  |  |  |  |  |  |  |  | 25 ± 4.1 |  |  |  |  |  |  | 
4 | NNC(=O)c1ccncc1 [INH, isoniazid, reference compound] |  |  |  | 0.5 to 1 (≈ 0.0686 to 0.137 µg/mL) | 0.5 to 1 (≈ 0.0686 to 0.137 µg/mL) |  |  |  | ≥ 250 | ≥ 250 | 0 | > 250 | > 250 | > 250 | 2 to 4 (≈ 0.274 to 0.549 µg/mL) | 4 to 8 (≈ 0.549 to 1.1 µg/mL) | 8 to 16 (≈ 1.1 to 2.19 µg/mL) | MIC ([2]; time not stated, read-out: MIC against M. tuberculosis): 1 µM (≈ 0.137 µg/mL)
5 | Nc1ccc(C(=O)O)c(O)c1 [PAS, p-aminosalicylic acid, reference compound] |  |  |  | 62.5 (≈ 9.57 µg/mL) | 62.5 (≈ 9.57 µg/mL) |  |  |  | 32 (≈ 4.9 µg/mL) | 125 (≈ 19.1 µg/mL) |  | 125 (≈ 19.1 µg/mL) | 1000 (≈ 153 µg/mL) | > 1000 | 32 (≈ 4.9 µg/mL) | 125 (≈ 19.1 µg/mL) | 500 (≈ 76.6 µg/mL) | 
6 | CC1(C)S[C@@H]2[C@H](NC(=O)Cc3ccccc3)C(=O)N2[C@H]1C(=O)O [PNC, benzylpenicillin, reference compound] |  |  |  |  |  |  |  |  |  |  |  |  |  |  |  |  |  | MIC ([6]; SP.J14365/08, 24 h): 7.81 µM (≈ 2.61 µg/mL); MIC ([6]; SP.J14365/08, 48 h): 15.6 µM (≈ 5.22 µg/mL); MIC ([7]; H6966/08, 24 h): 250 µM (≈ 83.6 µg/mL); MIC ([7]; H6966/08, 48 h): 250 µM (≈ 83.6 µg/mL); MIC ([8]; CCM4517, 24 h): > 500 µM; MIC ([8]; CCM4517, 48 h): > 500 µM; MIC ([9]; CCM4516, 24 h): 0.98 µM (≈ 0.328 µg/mL); MIC ([9]; CCM4516, 48 h): 0.98 µM (≈ 0.328 µg/mL); MIC ([10]; 24 h): 62.5 µM (≈ 20.9 µg/mL); MIC ([10]; 48 h): 125 µM (≈ 41.8 µg/mL)

From paper PMC6270420, “Antibacterial Activity of Salicylanilide 4-(Trifluoromethyl)benzoates” (Molecules, 2013)
